Assay results taken from PMC10791743, “Selective CK1α degraders exert antiproliferative activity against a broad range of human cancer cell lines” (Nature Communications, 2024).

Experiments:
Assay in all cases: cells
Parameters in all cases: Oncolines panel cell viability, ATPlite 1Step luminescence, duplicate 9-point dose response, IC50
SW837 = conditions: Homo sapiens, SW837; 72 h viability; read-out: SJ3149
Protocol: (§1) Cell viability assays were performed as previously described. In brief, cells were seeded in a 384-well plate at an optimized density. The starting cell number was determined after 24 h incubation by adding ATPlite 1Step (Perkin Elmer, Groningen, the Netherlands) to each well and recording luminescence on an Envision multimode reader (Perkin Elmer, Waltham, MA). After the addition of a duplicate 9-point dilution series of SJ3149, cells were incubated for another 72 h, followed by cell counting using ATPlite 1Step. The dilution series ranged from 3.2 to 31,600 nM or was diluted 100-fold for the most sensitive cell lines to ideally capture the complete dose–response curve. Percentage viability was determined at each compound concentration by relating the observed signal to a vehicle-treated control, that is, medium containing 0.4% (v/v) DMSO. Compound IC50 values were calculated by fitting a 4-parameter logistic curve to the percentage viability values using IDBS XLfit5 (IDBS, Guildford, UK). The IC50 was limited to the maximum tested compound concentration when the IC50 exceeded the maximum tested concentration. […] To evaluate the compound’s effect and potential therapeutic application across a diverse range of human cancers, we profiled SJ3149 in Oncolines® panel consisting of 115 human cancer cell lines, of which 86 were solid tumor and 29 hematologic cell lines, including MOLM-13. Effect on cell viability was monitored using ATPLite™ (Perkin Elmer), which measures intracellular ATP content as an indirect readout of cell number, like CellTiter Glo.

U-87 MG = conditions: Homo sapiens, U-87 MG; 72 h viability; read-out: SJ3149
Protocol: as §1

MG-63 = conditions: Homo sapiens, MG-63; 72 h viability; read-out: SJ3149
Protocol: as §1

T24 = conditions: Homo sapiens, T-24; 72 h viability; read-out: SJ3149
Protocol: as §1

SW620 = conditions: Homo sapiens, SW-620; 72 h viability; read-out: SJ3149
Protocol: as §1

NCI-H460 = conditions: Homo sapiens, NCI-H460; 72 h viability; read-out: SJ3149
Protocol: as §1

PFSK-1 = conditions: Homo sapiens, PFSK-1; 72 h viability; read-out: SJ3149
Protocol: as §1

Hs 766T = conditions: Hs766T; 72 h viability; read-out: SJ3149
Protocol: as §1

CCF-STTG1 = conditions: Homo sapiens, CCF-STTG1; 72 h viability; read-out: SJ3149
Protocol: as §1

TCCSUP = conditions: Homo sapiens, TCC-SUP; 72 h viability; read-out: SJ3149
Protocol: as §1

SUP-T1 = conditions: Homo sapiens, SUP-T1; 72 h viability; read-out: SJ3149
Protocol: as §1

786-O = conditions: Homo sapiens, 786-0; 72 h viability; read-out: SJ3149
Protocol: as §1

Kasumi-1 = conditions: Homo sapiens, Kasumi 1; 72 h viability; read-out: SJ3149
Protocol: as §1

SW948 = conditions: Homo sapiens, SW948; 72 h viability; read-out: SJ3149
Protocol: as §1

NCI-H82 = conditions: Homo sapiens, NCI-H82; 72 h viability; read-out: SJ3149
Protocol: as §1

RPMI-7951 = conditions: Homo sapiens, RPMI-7951; 72 h viability; read-out: SJ3149
Protocol: as §1

THP-1 = conditions: Homo sapiens, THP-1; 72 h viability; read-out: SJ3149
Protocol: as §1

Hs 746T = conditions: Homo sapiens, Hs746T; 72 h viability; read-out: SJ3149
Protocol: as §1

A388 = conditions: 72 h viability; read-out: SJ3149
Protocol: as §1

Daoy = conditions: Homo sapiens, Daoy; 72 h viability; read-out: SJ3149
Protocol: as §1

Measured: IC50

O=C1CCC(N2Cc3cc(Nc4noc5ccccc45)ccc3C2=O)C(=O)N1 (centres unmarked) [SJ3149]
> 31.6 µM: all assays above
